Tested on: T1, purified human Hsp90
T1 construct: purified human Hsp90 (Stressgen, SPP-770)
Experiment: Hsp90 binding assay: displacement of BODIPY-labeled geldanamycin measured by fluorescence polarization
Conditions: 5 μM compound; BODIPY-GM 10 nM, Hsp90 30 nM, overnight at room temperature
Procedure: Binding of the Example Compounds to purified Hsp90 was assayed by measuring the displacement of BODIPY-labeled geldanamycin (BODIPY-GM) from purified human Hsp90, using a fluorescence polarization assay adapted from Kim et al. (J. Biomolec. Screening, 9(5):375-381 (2004)). Compound dilutions (in 100% DMSO) were added to black-bottom 96-well plates (Greiner Bio-One, Monroe, N.C.) in 2% DMSO final, and equal volumes of BODIPY-GM (10 nM final) and purified human Hsp90 (Stressgen, SPP-770; 30 nM final) (Assay Designs, Ann Arbor, Mich.) in assay buffer (20 mM HEPES-KOH pH 7.3, 50 mM KCl, 5 mM MgCl2, 20 mM Na2MoO4, 0.01% NP-40, 0.1 mg/mL bovine gamma globulin [P2045; Invitrogen, Carlsbad, Calif.], 2 mM DTT) were added sequentially to yield a final volume of 50 microliters. Plates were incubated overnight at room temperature. Parallel and perpendicular fluorescence measurements were read (Analyst AD plate reader; LJL BioSystems, Middletown, Conn.) with excitation/emission wavelengths of 485/530 nm. Background fluorescence (buffer only) was subtracted, and fluorescence polarization (FP) values, expressed in mP units, were calculated from parallel and perpendicular fluorescence readings as follows:
FP=(parallel−perpendicular)/(parallel+perpendicular)*1000.
Percent inhibition was calculated by normalizing the FP values to those obtained in parallel reactions containing DMSO and subtracting these normalized values from 100%. Intrinsic compound fluorescence was independently monitored, and FP data points confounded by compound fluorescence were excluded from the analysis.

Point of comparison: Cc1cc(Br)c(Sc2nc3c(N)ncn(CCC4CCN(C(=O)[C@H](C)O)CC4)c-3n2)cc1C [Example Compound 166, (2S)-1-[4-(2-{6-amino-8-[(2-bromo-4,5-dimethylphenyl)thio]-3H-purin-3-yl}ethyl)piperidin-1-yl]-1-oxopropan-2-ol], “GM displacement from purified Hsp90 measured by FP Inhibition by 5 μM compd. (%)” value 75.0%. Against it:
- Nc1ncn(CCC2CCN(C=O)CC2)c2nc(Sc3cc(O)c(O)cc3Br)nc1-2 [Example Compound 146, 4-(2-{6-amino-8-[(2-bromo-4,5-dihydroxyphenyl)thio]-3H-purin-3-yl}ethyl)piperidine-1-carbaldehyde] — higher, 87.0%

Same assay, conditions: BODIPY-GM 10 nM, Hsp90 30 nM, overnight at room temperature; read-out: GM displacement from purified Hsp90 measured by FP IC 50

Point of comparison: CC(=O)NCC(=O)N1CCC(CCn2c(Sc3cc4c(cc3Br)OCCO4)nc3c(N)ncnc32)CC1 [Example Compound 159, N-{2-[4-(2-{6-Amino-8-[(7-bromo-2,3-dihydro-1,4-benzodioxin-6-yl)thio]-9H-purin-9-yl}ethyl)piperidin-1-yl]-2-oxoethyl}acetamide], IC50 150 nM. Against it:
- Nc1ncnc2c1nc(Sc1cc(O)c(O)cc1Br)n2CCC1CCN(C=O)CC1 [Example Compound 145, 4-(2-{6-Amino-8-[(2-bromo-4,5-dihydroxyphenyl)thio]-9H-purin-9-yl}ethyl)piperidine-1-carbaldehyde] — 4-fold higher, 600 nM
- Nc1ncnc2c1nc(Sc1cc3c(cc1Br)OCO3)n2CCC1CCNCC1 [Example Compound 147, 8-[(6-Bromo-1,3-benzodioxol-5-yl)thio]-9-(2-piperidin-4-ylethyl)-9H-purin-6-amine] — 3.1-fold higher, 470 nM
- Nc1ncnc2c1nc(Sc1cc3c(cc1Br)OCO3)n2CCC1CCN(S(N)(=O)=O)CC1 [Example Compound 148, 4-(2-{6-Amino-8-[(6-bromo-1,3-benzodioxol-5-yl)thio]-9H-purin-9-yl}ethyl)piperidine-1-sulfonamide] — 2.7-fold higher, 400 nM
- Nc1ncnc2c1nc(Sc1cc3c(cc1Br)OCO3)n2CCC1CCN(CCO)CC1 [Example Compound 149, 2-[4-(2-{6-Amino-8-[(6-bromo-1,3-benzodioxol-5-yl)thio]-9H-purin-9-yl}ethyl)piperidin-1-yl]ethanol] — 3-fold higher, 450 nM
- Nc1ncnc2c1nc(Sc1cc3c(cc1Br)OCO3)n2CCC1CCN(CCCO)CC1 [Example Compound 150, 3-[4-(2-{6-Amino-8-[(6-bromo-1,3-benzodioxol-5-yl)thio]-9H-purin-9-yl}ethyl)piperidin-1-yl]propan-1-ol] — 4-fold higher, 600 nM
- NC(=O)C[C@H](N)C(=O)N1CCC(CCn2c(Sc3cc4c(cc3Br)OCCO4)nc3c(N)ncnc32)CC1 [Example Compound 151, (3S)-3-Amino-4-[4-(2-{6-amino-8-[(7-bromo-2,3-dihydro-1,4-benzodioxin-6-yl)thio]-9H-purin-9-yl}ethyl)piperidin-1-yl]-4-oxobutanamide] — 2.6-fold lower, 57 nM
- NC(=O)C[C@H](N)C(=O)N1CCC(CCn2c(Sc3cc4c(cc3Br)OCO4)nc3c(N)ncnc32)CC1 [Example Compound 152, (3S)-3-Amino-4-[4-(2-{6-amino-8-[(6-bromo-1,3-benzodioxol-5-yl)thio]-9H-purin-9-yl}ethyl)piperidin-1-yl]-4-oxobutanamide] — within 1.5-fold, 114 nM
- NC(=O)CCC(=O)N1CCC(CCn2c(Sc3cc4c(cc3Br)OCCO4)nc3c(N)ncnc32)CC1 [Example Compound 153, 4-[4-(2-{6-Amino-8-[(7-bromo-2,3-dihydro-1,4-benzodioxin-6-yl)thio]-9H-purin-9-yl}ethyl)piperidin-1-yl]-4-oxobutanamide] — within 1.5-fold, 175 nM
- Nc1ncnc2c1nc(Sc1cc3c(cc1Br)OCCO3)n2CCC1CCN(C2=NC(=O)CC2)CC1 [Example Compound 154, 5-[4-(2-{6-amino-8-[(7-bromo-2,3-dihydro-1,4-benzodioxin-6-yl)thio]-9H-purin-9-yl}ethyl)piperidin-1-yl]-3,4-dihydro-2H-pyrrol-2-one] — within 1.5-fold, 105 nM
- NC(=O)CCC(=O)N1CCC(CCn2c(Sc3cc4c(cc3Br)OCO4)nc3c(N)ncnc32)CC1 [Example Compound 155, 4-[4-(2-{6-Amino-8-[(6-bromo-1,3-benzodioxol-5-yl)thio]-9H-purin-9-yl}ethyl)piperidin-1-yl]-4-oxobutanamide] — 2-fold higher, 300 nM
- Nc1ncnc2c1nc(Sc1cc3c(cc1Br)OCO3)n2CCC1CCN(C2=NC(=O)CC2)CC1 [Example Compound 156, 5-[4-(2-{6-amino-8-[(6-bromo-1,3-benzodioxol-5-yl)thio]-9H-purin-9-yl}ethyl)piperidin-1-yl]-3,4-dihydro-2H-pyrrol-2-one] — within 1.5-fold, 160 nM
- CS(=O)(=O)NCC(=O)N1CCC(CCn2c(Sc3cc4c(cc3Br)OCCO4)nc3c(N)ncnc32)CC1 [Example Compound 157, N-{2-[4-(2-{6-Amino-8-[(7-bromo-2,3-dihydro-1,4-benzodioxin-6-yl)thio]-9H-purin-9-yl}ethyl)piperidin-1-yl]-2-oxoethyl}methanesulfonamide] — within 1.5-fold, 195 nM
- CS(=O)(=O)NCC(=O)N1CCC(CCn2c(Sc3cc4c(cc3Br)OCO4)nc3c(N)ncnc32)CC1 [Example Compound 158, N-{2-[4-(2-{6-Amino-8-[(6-bromo-1,3-benzodioxol-5-yl)thio]-9H-purin-9-yl}ethyl)piperidin-1-yl]-2-oxoethyl}methanesulfonamide] — 2.4-fold higher, 360 nM
- CC(=O)N[C@@H](C)C(=O)N1CCC(CCn2c(Sc3cc4c(cc3Br)OCCO4)nc3c(N)ncnc32)CC1 [Example Compound 160, N-{(1S)-2-[4-(2-{6-Amino-8-[(7-bromo-2,3-dihydro-1,4-benzodioxin-6-yl)thio]-9H-purin-9-yl}ethyl)piperidin-1-yl]-1-methyl-2-oxoethyl}acetamide] — within 1.5-fold, 200 nM
- CC(=O)N[C@H](C)C(=O)N1CCC(CCn2c(Sc3cc4c(cc3Br)OCCO4)nc3c(N)ncnc32)CC1 [Example Compound 161, N-{(1R)-2-[4-(2-{6-Amino-8-[(7-bromo-2,3-dihydro-1,4-benzodioxin-6-yl)thio]-9H-purin-9-yl}ethyl)piperidin-1-yl]-1-methyl-2-oxoethyl}acetamide] — within 1.5-fold, 140 nM
- Nc1ncnc2c1nc(Sc1cc3c(cc1Br)OCCO3)n2CCC1CCN(C(=O)CS)CC1 [Example Compound 162, 2-[4-(2-{6-Amino-8-[(7-bromo-2,3-dihydro-1,4-benzodioxin-6-yl)thio]-9H-purin-9-yl}ethyl)piperidin-1-yl]-2-oxoethanethiol] — 2.5-fold lower, 60 nM
- C[C@H](O)C(=O)N1CCC(CCn2c(Sc3cc4c(cc3Br)CCCC4)nc3c(N)ncnc32)CC1 [Example Compound 163, (2S)-1-[4-(2-{6-amino-8-[(3-bromo-5,6,7,8-tetrahydronaphthalen-2-yl)thio]-9H-purin-9-yl}ethyl)piperidin-1-yl]-1-oxopropan-2-ol] — within 1.5-fold, 205 nM
- Cc1cc(Br)c(Sc2nc3c(N)ncnc3n2CCC2CCN(C(=O)[C@H](C)O)CC2)cc1C [Example Compound 165, (2S)-1-[4-(2-{6-amino-8-[(2-bromo-4,5-dimethylphenyl)thio]-9H-purin-9-yl}ethyl)piperidin-1-yl]-1-oxopropan-2-ol] — 1.6-fold higher, 240 nM
- Nc1ncnc2c1nc(Sc1cc3c(cc1Br)CCO3)n2CCC1CCN(C=O)CC1 [Example Compound 167, 4-(2-{6-Amino-8-[(5-bromo-2,3-dihydro-1-benzofuran-6-yl)thio]-9H-purin-9-yl}ethyl)piperidine-1-carbaldehyde] — 3.6-fold lower, 42 nM
- Nc1ncnc2c1nc(Sc1cc3occc3cc1Br)n2CCC1CCN(C=O)CC1 [Example Compound 168, 4-(2-{6-Amino-8-[(5-bromo-1-benzofuran-6-yl)thio]-9H-purin-9-yl}ethyl)piperidine-1-carbaldehyde] — 1.6-fold lower, 95 nM
- CC(C)(C)OC(=O)N1CCC(CCn2c(Sc3cc4c(cc3C=O)OCO4)nc3c(N)ncnc32)CC1 [Example Compound 169, tert-Butyl 4-(2-{6-amino-8-[(6-formyl-1,3-benzodioxol-5-yl)thio]-9H-purin-9-yl}ethyl)piperidine-1-carboxylate] — 13-fold higher, 1900 nM
- COC(=O)c1cc2c(cc1Sc1nc3c(N)ncnc3n1CCC1CCN(C=O)CC1)OCO2 [Example Compound 170, Methyl 6-({6-amino-9-[2-(1-formylpiperidin-4-yl)ethyl]-9H-purin-8-yl}thio)-1,3-benzodioxole-5-carboxylate] — 3.7-fold lower, 41 nM
- CCOC(=O)c1cc2c(cc1Sc1nc3c(N)ncnc3n1CCC1CCN(C=O)CC1)OCO2 [Example Compound 171, ethyl 6-({6-amino-9-[2-(1-formylpiperidin-4-yl)ethyl]-9H-purin-8-yl}thio)-1,3-benzodioxole-5-carboxylate] — 2.2-fold lower, 68 nM
- CC(C)(C)OC(=O)N1CCC(CCn2c(Sc3cc4c(cc3Br)CCO4)nc3c(N)ncnc32)CC1 [Example Compound 172, tert-Butyl 4-(2-{6-amino-8-[(5-bromo-2,3-dihydro-1-benzofuran-6-yl)thio]-9H-purin-9-yl}ethyl)piperidine-1-carboxylate] — 2-fold higher, 300 nM

Reference: patent US20100292255A1, “Therapeutic Compounds and Their Use in Treating Diseases and Disorders” (Myriad Pharmaceuticals, Inc., priority 2007, published 2010)
